Where a SMILES comes first, the peptide text is derived from it. The star is where a group is joined. Cbz = O=C(OCc1ccccc1)*
T1: IRS1 (Homo sapiens, UniProt P35568)
T1 sequence (P35568 1-1242): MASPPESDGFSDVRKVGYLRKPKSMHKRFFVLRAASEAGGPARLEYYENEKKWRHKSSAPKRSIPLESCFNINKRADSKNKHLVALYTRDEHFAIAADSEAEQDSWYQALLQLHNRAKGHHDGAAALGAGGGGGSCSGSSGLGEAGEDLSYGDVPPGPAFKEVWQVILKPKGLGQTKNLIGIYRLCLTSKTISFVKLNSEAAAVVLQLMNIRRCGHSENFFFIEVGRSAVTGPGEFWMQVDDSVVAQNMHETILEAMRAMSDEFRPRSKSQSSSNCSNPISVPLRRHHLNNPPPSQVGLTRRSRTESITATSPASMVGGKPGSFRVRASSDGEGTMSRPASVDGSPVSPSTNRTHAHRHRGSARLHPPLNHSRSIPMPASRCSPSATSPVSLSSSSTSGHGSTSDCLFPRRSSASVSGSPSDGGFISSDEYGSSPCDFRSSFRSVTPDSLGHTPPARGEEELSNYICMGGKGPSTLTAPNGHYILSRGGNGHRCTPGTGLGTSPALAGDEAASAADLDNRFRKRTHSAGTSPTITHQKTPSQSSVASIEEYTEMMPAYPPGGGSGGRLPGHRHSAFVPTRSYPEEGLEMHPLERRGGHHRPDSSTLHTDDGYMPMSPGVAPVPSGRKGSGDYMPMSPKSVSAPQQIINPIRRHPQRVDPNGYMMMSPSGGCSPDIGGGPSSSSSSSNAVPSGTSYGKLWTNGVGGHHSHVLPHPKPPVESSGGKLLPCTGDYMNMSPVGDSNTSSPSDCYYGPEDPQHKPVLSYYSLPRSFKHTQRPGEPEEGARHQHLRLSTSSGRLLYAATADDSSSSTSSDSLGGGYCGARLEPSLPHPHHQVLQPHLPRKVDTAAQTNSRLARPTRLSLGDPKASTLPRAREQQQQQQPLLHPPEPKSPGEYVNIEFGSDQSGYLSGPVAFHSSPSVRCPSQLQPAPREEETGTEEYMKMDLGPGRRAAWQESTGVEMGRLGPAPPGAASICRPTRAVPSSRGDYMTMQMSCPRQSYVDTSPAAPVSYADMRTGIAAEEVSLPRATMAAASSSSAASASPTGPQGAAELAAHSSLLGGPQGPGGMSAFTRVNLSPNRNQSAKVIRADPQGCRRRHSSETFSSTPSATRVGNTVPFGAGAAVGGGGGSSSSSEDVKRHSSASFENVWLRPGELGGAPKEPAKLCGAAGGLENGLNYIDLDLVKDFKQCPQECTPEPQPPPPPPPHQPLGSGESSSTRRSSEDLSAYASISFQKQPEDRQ

B1: ERα 60-280: ERα 60-280 domain, overexpressed in HepG2 cells (protein, UniProt P03372 60-280, looked up, fragment)
chain: YEFNAAAAANAQVYGQTGLPYGPGSEAAAFGSNGLGGFPPLNSVSPSPLMLLHPPPQLSPFLQPHGQQVPYYLENEPSGYTVREAGPPAFYRPNSDNRRQGGRERLASTNDKGSMAMESAKETRYCAVCNDYASGYHYGVWSCEGCKAFFKRSIQGHNDYMCPATNQCTIDKNRRKSCQACRLRKCYEVGMMKGGIRKDRRGGRMLKHKRQRDDGEGRGEV

Assays:
Format in all cases: cell-based
ERα mRNA = ERα mRNA expression in mouse primary hepatocytes treated with insulin; conditions: 200 nM insulin for 12 hours
Description: FIGS. 8A and 8B show the hyperinsulinemia decreases ERα mRNA expression in mouse primary hepatocytes. […] Data are presented as mean±SEM. * p<0.05, One-way ANOVA.
RNA extraction and quantitative real-time PCR. Total RNA was extracted from livers or primary hepatocytes using TRIzol (Invitrogen, Thermo Fisher Scientific), purified with chloroform, 80% ethanol, isopropanol, and RNA column, eluted with RNase free water, and reverse transcribed into cDNA using iScript Reverse Transcription Supermix (Bio-Rad, Hercules, CA). Quantitative real-time PCR (qPCR) was conducted using SsoAdvanced Universal SYBR Green Supermix (Bio-Rad, Hercules, CA) on CFX384 real-time PCR detection system (Bio-Rad, Hercules, CA). Q-PCR started with 95° C. incubation for 3 min, followed by 39 cycles of 95° C. for 5 s and 60° C. for 30 s. The threshold cycle (CT) values were obtained and used to calculate the relative transcriptional level of target genes by 2^−ΔΔCT method with Cyclophilin (Cyp) as an internal control. […].

IRS1 [1] = molecular target: T1, IRS1; assay: Immunofluorescence staining in HEK293T cells
Method: Immunofluorescence staining. Cells were fixed with 4% formaldehyde solution, followed by incubation with blocking buffer (1×PBS/5% normal serum/0.3% Triton X-100) for 1 h. After rinsing three times using PBS, cells were incubated with primary antibodies overnight at 4° C. Cells were washed with PBS and incubated with secondary antibodies (anti-mouse Alexa Flour 594 Conjugated) at room temperature 1-2 h. Cells were covered with DAPI-contained mounting medium. Fluorescent signal was observed using Confocal microscopy (Leica).

HepG2 cells (IRS1, pAKT) = assay: Gain-of-function of ERα domains on insulin sensitivity in HepG2 cells; conditions: overexpression
Method: (§1) Primary hepatocytes isolation and cell culture. Primary hepatocytes were isolated. Male mice at age of 8-12 weeks were infused with a perfusion buffer A (calcium and magnesium-free HBSS supplemented with 10 mM HEPES, […], 1 mM glucose, and 1% penicillin-streptomycin, pH 7.4) through portal vein for 6-8 min. Then perfusion buffer A was changed to buffer B (calcium and magnesium-free HBSS supplemented with 10 mM HEPES, 1 mM CaCl2), 1 mM glucose, 1% penicillin-streptomycin, and 0.5 mg/mL collagenase II, pH 7.4). […] Liver cells were suspended and passed through a 70 μm cell strainer, followed by centrifuge at 1700 rpm for 2 min. Pellets were resuspended with Percoll at final concentration of 36% and centrifuged at 1800 rpm for 6 min. The hepatocyte pellet was washed and suspended with DMEM supplemented with 10% FBS and 1% penicillin-streptomycin in collagen-coated plates. The HepG2 cell line was purchased from Abcam and cultured with DMEM medium supplemented with 10% FBS and 1% penicillin-streptomycin in collagen-coated plates. The human embryo kidney (HEK) 293 cell line was purchased from Sigma and cultured with DMEM medium supplemented with 10% FBS and 1% penicillin-streptomycin. FBS-free DMEM medium was used to culture cells during the experiments.
(§2) Co-immunoprecipitation and Western blotting analysis. […] Protein bands were detected using a ChemiDoc image system.

IRS1 [2] = assay: IRS1 protein levels in ERα deficient mouse primary hepatocytes treated with MG132; conditions: ERαLivKO hepatocytes, 10 μM MG132 for 3 hours
Method: Representative blots are shown. […] Co-immunoprecipitation was performed.
as §1, with “FBS-free DMEM medium was used to culture cells during the experiments.” left out
as §2

Row | Molecule | colocalization with IRS1 (IRS1 [1]) | enhancement of insulin-stimulated AKT phosphorylation (HepG2 cells (IRS1, pAKT)) | increase in IRS1 (HepG2 cells (IRS1, pAKT)) | other results
1 | insulin: insulin used to treat primary hepatocytes (200 nM) |  |  |  | mRNA expression levels of ERα (ERα mRNA): significantly decreased
2 | MTMTLHTKASGMALLHQIQGNELEPLNRPQLKIPLERPLGEVYLDSSKPAVYNYPEGAAY (Description of sequence: ER-alpha amino acids 1-60) [ERα 1-60, ERα amino acids 1-60 domain] | colocalization with IRS1 | ~ 26% | ~ 80% | 
3 | TKASGMALLHEPLNRPQLKIPLERDSSKPAVYNY (Description of sequence: AF1 domain portion sequence) [34-amino acid-peptide, overexpressed in cells] | colocalization with IRS1 | ~ 26% | ~ 80% | 
4 | CC(C)C[C@@H](C=O)NC(=O)[C@H](CC(C)C)NC(=O)[C@H](CC(C)C)NC(=O)OCc1ccccc1 [MG132] (Cbz-Leu-Leu-Leu-aldehyde) |  |  |  | IRS1 protein levels (IRS1 [2]): significantly increased
5 | B1 |  |  |  | IRS1 protein levels (HepG2 cells (IRS1, pAKT)): no significant effect; insulin-induced AKT phosphorylation (HepG2 cells (IRS1, pAKT)): no significant effect

— patent US20260274922A1, “SYNTHETIC ESTROGEN RECEPTOR (ER)-DERIVED PEPTIDE” (THE TEXAS A&M UNIVERSITY SYSTEM, priority 2023, published 2026)
